Test results taken from patent US20210046114A1, “HPV IMMUNOTHERAPY” (The Council of the Queensland Institute of Medical Research, priority 2018, published 2021).

Assays:
[1] = system: HPV-specific T cells from HNC patients; experiment: HPV T-cell epitope mapping by intracellular cytokine staining (ICS); format: cell-based, human; details: for T cell specificity: epitopes mapped in HNC patient T cells, Table 1; for epitope identified by fine-mapping: FIG. 5 and FIG. 6
Description: (§1) Peripheral blood mononuclear cells (PBMCs) from HNC patients were isolated and stimulated with HPV antigen pepmix peptide pools for either HPV16 or HPV18 in separate cultures and prepared for the intracellular cytokine staining (ICS) assay, as described above (non-stimulated controls were run in parallel). T cell response to the pepmix peptide pools was analyzed to identify individual peptides. These individual peptides were further assessed for T cell expansion and ICS analysis to identify potential epitopes. Once the 15mer peptide was identified, further mimimalization of the epitope sequence was carried out to identify the optimal T cell epitope sequence. The 15mer peptide sequences were trimmed from both N- and C-terminus to a minimal of 9-14 amino acid long peptides. Once the minimal peptide sequence was identified, further confirmation was carried out using limiting dose titration ICS assay. After mapping minimal epitope sequence, the HLA restriction of the epitope was identified by stimulating T cells using peptide loaded HLA-matched and mismatched PHA blasts (PHA).
Representative data showing that HPV-specific T cells from HNC patients recognized HPV16-E6, HPV18-E6 antigens can be found in FIGS. 1 and 2, respectively. In order to map the T cell epitope, further analysis was carried out using sub pools of E6 peptides. […] When analyzed on an HPV peptide matrix layout, the common peptide sequence among the responding pools was identified.

[2] = system: HPV-specific T cells / HLA-matched and mismatched PHA blasts; experiment: HLA restriction mapping with peptide loaded HLA-matched and mismatched PHA blasts; format: cell-based, human; details: epitopes mapped in HNC patient T cells, Table 1
Description: as §1

Sequence	T cell specificity [1]	HLA restriction [2]	epitope identified by fine-mapping [1]
SPATAFTVY (listed as Human papillomavirus)	CD8^+		
FRDLCIVYR (listed as Human papillomavirus)	CD8^+		
KLPQLCTEL (listed as Human papillomavirus)	CD8^+		
HDIILECVY (listed as Human papillomavirus)	CD8^+		
TIHDIILECV (listed as Human papillomavirus)	CD8^+		
TPTLHEYMLDLQPETTDLY (listed as Human papillomavirus)	CD4^+	DQB1*03:01	
LLMGTLGIV	CD8^+		
TVLELTEVFEF (listed as Human papillomavirus)	CD8^+		
VWEVHAGGQVI (listed as Human papillomavirus)	CD8^+		
KQRFHNIRGRWTGRC			fine CD4 epitope-mapping of HPV16-E6 pools identified
LQDVSLEVYL (listed as Human papillomavirus)	CD8^+		
RCINCQKPLCPEEKQRHLD (listed as Human papillomavirus)	CD4^+	DRB115:01	
RPFKSNKST (listed as Human papillomavirus)	CD8^+		
EKQRHLDKKQRFHNIRGRWTGRCMSCC (listed as Human papillomavirus)	CD4^+	DRB115:01	
VYDYAFRDLCIVYRDGNPYAVCD (listed as Human papillomavirus)	CD4^+	DRB115:01	
TLQDVSLEVYL (listed as Human papillomavirus)	CD8^+		
AFRDLCIVY (listed as Human papillomavirus)	CD8^+		

Sequence	T cell specificity [1]	HLA restriction [2]	epitope identified by fine-mapping [1]
HIDYWKHMRLECALY (listed as Human papillomavirus)	CD4^+	DQB1*03:01	
LEDLLMGTLGI (listed as Human papillomavirus)	CD8^+		
YEQLNDSSEEEDEID (listed as Human papillomavirus)	CD4^+	DQB1*03:01	
NLDTASTTL (listed as Human papillomavirus)	CD8^+		
SEIAYKYAQ (listed as Human papillomavirus)	CD8^+		
FELSQMVQW (listed as Human papillomavirus)	CD8^+		
TVLELTEVFEFA (listed as Human papillomavirus)	CD8^+		HPV18-E6 CD^+ T cell epitope
SVDSAPILTAFNSSH (listed as Human papillomavirus)	CD4^+	DQB1*03:01	
TLLQQYCLYL	CD8^+		
WKSFFSRTWSRLSLH (listed as Human papillomavirus)	CD4^+	DRB1*04:01	
DRAHYNIVTF (listed as Human papillomavirus)	CD8^+		
GRWTGRCMSC (listed as Human papillomavirus)	CD8^+		
WPTTPPRPI (listed as Human papillomavirus)	CD8^+		
VQSTHVDIRTLEDLLMGTL (listed as Human papillomavirus)	CD4^+	DQB1*03:01	
SAFRCFIVY (listed as Human papillomavirus)	CD8^+		
IRCINCQKPL (listed as Human papillomavirus)	CD8^+		
